Results on 17 compounds are retold here after article PMC7488288, “Understanding and Improving the Membrane Permeability of VH032-Based PROTACs” (ACS Medicinal Chemistry Letters, 2020).

Each structure is given as a SMILES string. Where two headings read alike, the source gives them in different places. A value given as a limit tells only on which side of the number the result lay.

Data set [1] relates to MV4;11. The data set can be described thus: Cell proliferation assay, MV4;11. The format is cell-based. Particulars: Homo sapiens, 48 h treatment, read-out: pEC50 (MV4;11) (converted). From the text:
(§1) IX. Cell proliferation assay
(§2) Cell proliferation data were collected as described in Chan et al. 2018 pg. 511 titled “Cell

Data set [2] deals with HL60. The data set can be described thus: Cell proliferation assay, HL60. The format is cell-based. Particulars: for EC50: Homo sapiens, HL-60, 48 h treatment, read-out: pEC50 (HL60) (converted); for pEC50 (HL60): 48 h treatment.
Description: as §1, §2

The conditions of data set [3]: for LPE: LPE = LogD(dec/w) – 1.06(ALogP) + 5.47.
The next data set can be described thus: in vitro. Conditions: PAMPA. For orientation: PAMPA measures passive passage across an artificial lipid membrane.
The test system of a further data set is VHL E3 ubiquitin ligase. Also on record: method as in PMID 29018234. Conditions: cited from earlier work.
The subject of data set [4] is MV4;11. Particulars: cited from earlier work; for pEC50 (MV4;11): cell proliferation, 48 h treatment, ref Chan et al. 2018 (ref1).
Data set [5] deals with HL60. Also noted: method as in Chan et al. 2018 (ref1). Particulars: cell proliferation, 48 h treatment; ref Chan et al. 2018 (ref1); cited from earlier work.
For a further data set, the system named is VHL protein. Also on record: method as in PMID 28288108, PMID 30721025. Particulars: cited from earlier work.
A further data set deals with T1, VHL (Homo sapiens, UniProt P40337).
T1 construct: each well solution containing 15 nM VCB
The data set can be described thus: Fluorescence polarization (FP) competitive binding assay. Conditions: 15 nM VCB protein, 10 nM FAM-labeled HIF-1α peptide JC9, read-out: Kd (FP-derived). (In general: Polarisation of emitted light reports the rotation of a fluorescent probe.)

By Papp is commonly meant a coefficient for how fast a substance crosses the barrier. As for `CC(=O)N[C@H](C(=O)N1C[C@H](O)C[C@H]1C(=O)NCc1ccc(-c2scnc2C)cc1)C(C)(C)SCCOCCNC(=O)C[C@@H]1N=C(c2ccc(Cl)cc2)c2c(sc(C)c2C)-n2c(C)nnc21` [Compound 15], the EC50 is 7240 nM in the data set with MV4;11 [1] and 12600 nM in the data set with HL60 [2]. Moreover, the LPE in data set [3] is −2.3. In the data set “in vitro” (pH 7.4), this compound showed an apparent permeability coefficient (Papp) at 15 h of 0.005 ± 0.003 ×10⁻⁶ cm/s.
As to `Cc1ncsc1-c1ccc(CNC(=O)[C@@H]2C[C@@H](O)CN2C(=O)[C@@H](NC(=O)Cc2ccccc2)C(C)(C)C)cc1` [Compound 4], the LPE in [3] amounted to 2.0. In the data set “in vitro” (pH 7.4), the Papp is at least 5 ×10⁻⁶ cm/s and the Papp at 7 h stood at 8.6 ×10⁻⁶ cm/s.
On to `Cc1ncsc1-c1ccc(CNC(=O)[C@@H]2C[C@H](O)CN2C(=O)[C@@H](NC(=O)COCCOCCOCCOCCOCCOCC(=O)N[C@H](C(=O)N2C[C@@H](O)C[C@H]2C(=O)NCc2ccc(-c3scnc3C)cc2)C(C)(C)C)C(C)(C)C)cc1` [Compound 14], for which the LPE in data set [3] (listed as CMP98 (14)) turned out to be 1.7. The Papp at 15 h in “in vitro” (pH 7.4) was 0.002 ± 0.0002 ×10⁻⁶ cm/s.
On to `Cc1ncsc1-c1ccc(CNC(=O)[C@@H]2C[C@@H](O)CN2C(=O)[C@@H](NC(=O)COCCOCCOCCOCC(=O)N[C@H](C(=O)N2C[C@H](O)C[C@H]2C(=O)NCc2ccc(-c3scnc3C)cc2)C(C)(C)C)C(C)(C)C)cc1` [Compound 12], for which the LPE in data set [3] (listed as CM9 (12)) is 0.8. In the data set “in vitro” (pH 7.4), this compound gave a Papp of 0.009 ×10⁻⁶ cm/s.
`Cc1ncsc1-c1ccc(CNC(=O)[C@@H]2C[C@@H](O)CN2C(=O)[C@@H](NC(=O)COCCOCCOCCOCCOCCOCC(=O)N[C@H](C(=O)N2C[C@H](O)C[C@H]2C(=O)NCc2ccc(-c3scnc3C)cc2)C(C)(C)C)C(C)(C)C)cc1` [Compound 13]: the “permeability relative to 12 (PAMPA)” value is given as “reduced by half”. In addition, in data set [3] (listed as CM11 (13)), the LPE is given as 0.6. Also, the “activity relative to 12 (cellular protein degradation assay)” value with VHL E3 ubiquitin ligase is given as “two log units”. This compound had an apparent permeability coefficient (Papp) in the data set “in vitro” (pH 7.4) of 0.005 ×10⁻⁶ cm/s.
As for `CC(=O)N1c2ccc(-c3ccc(C(=O)NCCOCCOCC(=O)N[C@H](C(=O)N4C[C@H](O)C[C@H]4C(=O)NCc4ccc(-c5scnc5C)cc4)C(C)(C)C)cc3)cc2[C@H](Nc2ccc(Cl)cc2)C[C@@H]1C` [Compound 10], the “fold difference in permeability vs 11 (PAMPA)” value (pH 7.4) is on record as 2 fold. Moreover, the LPE in [3] was -0.1. Moreover, the “pEC50 (MV4;11)” value with MV4;11 [4] is 6.24. For the same compound, the “pEC50 (HL60)” value in the data set on HL60 [5] is given as 6.17. In “in vitro” (pH 7.4), this compound returned a Papp at 15 h of 0.3 ± 0.1 ×10⁻⁶ cm/s.
For the compound `Cc1ncsc1-c1ccc(CNC(=O)[C@@H]2C[C@@H](O)CN2C(=O)[C@@H](NC(=O)[C@H](Cc2ccccc2)NC(=O)COCCOCCOCCNC(=O)C[C@@H]2N=C(c3ccc(Cl)cc3)c3c(sc(C)c3C)-n3c(C)nnc32)C(C)(C)C)cc1` [Compound 9], the EC50 in the data set with MV4;11 [1] is 457 nM; with HL60 [2], 4170 nM. The “fold decrease in permeability vs 8 (PAMPA)” value (pH 7.4) was 5 fold. In data set [3], the LPE is recorded as -1.1. Moreover, the “decrease in LPE vs 8” value in data set [3] (addition of a Phe residue to 8) is recorded as 1.2 unit. For the same compound, the apparent permeability coefficient (Papp) at 15 h in “in vitro” (pH 7.4) was 0.006 ×10⁻⁶ cm/s.
Regarding `CC(=O)N[C@H](C(=O)N1C[C@H](O)C[C@H]1C(=O)NCc1ccc(-c2scnc2C)cc1)C(C)(C)SCCCCNC(=O)C[C@@H]1N=C(c2ccc(Cl)cc2)c2c(sc(C)c2C)-n2c(C)nnc21` [Compound 17], the EC50 in the data set on MV4;11 [1] is 617 nM. For the same compound, the “pEC50 (HL60)” value in the data set with HL60 [2] is recorded as “BLQ”. Besides, the “fold less permeable than 15 (PAMPA)” value (pH 7.4) is reported as 2.5 fold. For the same compound, the LPE in data set [3] is reported as -3.1. For the same compound, in data set [3] (alkyl-linked 17 vs PEG counterpart 15), the “LPE lower than 15 (ΔLPE)” value amounted to 0.8. In addition, in the data set “in vitro” (pH 7.4), the Papp at 15 h came out at 0.002 ×10⁻⁶ cm/s.
Take `Cc1ncsc1-c1ccc(CNC(=O)[C@@H]2C[C@@H](O)CN2C(=O)[C@@H](NC(=O)COCCOCCOCCNC(=O)C[C@@H]2N=C(c3ccc(Cl)cc3)c3c(sc(C)c3C)-n3c(C)nnc32)C(C)(C)C)cc1` [Compound 8]: under “pH 7.4”, the “fold difference in permeability vs 16 (PAMPA)” value came to 10 fold and the “fold less permeable than 7 (PAMPA)” value came to 20 fold. Also, the “activity relative to 7 (cellular antiproliferation)” value with MV4;11 [4] (SI Table 2, MV4;11 and HL60) is listed as “one log unit”. In the data set with MV4;11 [4], the “pEC50 (MV4;11)” value is reported as 7.57. In addition, the “pEC50 (HL60)” value in the data set on HL60 [5] was 6.8. In “in vitro” (pH 7.4), this compound returned a Papp of over 0.6 ×10⁻⁶ cm/s and a Papp at 15 h of 0.03 ± 0.01 ×10⁻⁶ cm/s.
For the compound `CC(=O)N[C@H](C(=O)N1C[C@H](O)C[C@H]1C(=O)NCc1ccc(-c2scnc2C)cc1)C(C)(C)SCCCCCCNC(=O)C[C@@H]1N=C(c2ccc(Cl)cc2)c2c(sc(C)c2C)-n2c(C)nnc21` [AT1], the “fold lower binding affinity for the VHL protein compared to 8” value in the data set on VHL protein is recorded as 5 fold.
On to `CC(=O)N[C@H](C(=O)N1C[C@H](O)C[C@H]1C(=O)NCc1ccc(-c2scnc2C)cc1)C(C)(C)SCCOCCOCCNC(=O)C[C@@H]1N=C(c2ccc(Cl)cc2)c2c(sc(C)c2C)-n2c(C)nnc21` [Compound 16], for which the “permeability relative to 15 (PAMPA)” value was “reduced by half”. Besides, the EC50 in the data set on MV4;11 [1] is 692 nM. Also, in the data set on HL60 [2], the “pEC50 (HL60)” value is given as “BLQ”. The “PAMPA permeability (Pe)” value (pH 7.4) is given as 0.003 ± 8.4x10-5. Besides, the LPE in data set [3] was −2.6. Also, the Papp at 15 h in the data set “in vitro” (pH 7.4) amounted to 0.003 ×10⁻⁶ cm/s.
With `Cc1ncsc1-c1ccc(CNC(=O)[C@@H]2C[C@@H](O)CN2C(=O)[C@@H](NC(=O)COCCOCCNC(=O)C[C@@H]2N=C(c3ccc(Cl)cc3)c3c(sc(C)c3C)-n3c(C)nnc32)C(C)(C)C)cc1` [Compound 7], where the note is “pH 7.4”, the “fold more permeable than 8 (PAMPA)” value came to 20 fold; the “fold more permeable than 9 (PAMPA)” value was 100 fold; the “fold more permeable than 15 (PAMPA)” value is on record as 120 fold; the “fold more permeable than 17 and 14 (PAMPA)” value came out at 300 fold. In addition, the LPE in [3] worked out at 0.4. The “pEC50 (MV4;11)” value with MV4;11 [4] is on record as 6.75. Moreover, the “pEC50 (HL60)” value with HL60 [5] is 5.84. In the data set “in vitro” (pH 7.4), the apparent permeability (Papp) is over 0.6 ×10⁻⁶ cm/s and the Papp at 15 h is 0.6 ×10⁻⁶ cm/s.
In general, Kd refers to the equilibrium constant for the complex coming apart. As for `Cc1ncsc1-c1ccc(CNC(=O)[C@@H]2C[C@@H](O)CN2C(=O)[C@@H](OC(=O)Cc2ccccc2)C(C)(C)C)cc1` [Compound 3], on VHL, the Kd came out at 800 nM.
The compound `Cc1sc2c(c1C)C(c1ccc(Cl)cc1)=N[C@@H](CC(=O)OC(C)(C)C)c1nnc(C)n1-2` [Compound 1, reference compound] displayed a Papp in the data set “in vitro” (pH 7.4, PAMPA permeability (Pe)) of at least 5 ×10⁻⁶ cm/s.
With `Cc1ncsc1-c1ccc(CNC(=O)[C@@H]2C[C@@H](O)CN2C(=O)[C@@H](NC(=O)CCOCCOCCOCCNC(=O)Cc2ccccc2)C(C)(C)C)cc1` [Compound 6], the “ΔLPE (lower than 4)” value in data set [3] (comparator compound 4) is listed as 0.4. Besides, the Papp at 7 h in “in vitro” (pH 7.4) was 0.2 ± 0.03 ×10⁻⁶ cm/s.
As to `CC(=O)N1c2ccc(-c3ccc(C(=O)NCCOCCOCCOCCOCC(=O)N[C@H](C(=O)N4C[C@H](O)C[C@H]4C(=O)NCc4ccc(-c5scnc5C)cc4)C(C)(C)C)cc3)cc2[C@H](Nc2ccc(Cl)cc2)C[C@@H]1C` [Compound 11], the LPE in data set [3] came out at 0.2. The “pEC50 (MV4;11)” value in the data set on MV4;11 [4] is reported as 7.08. Also, the “pEC50 (HL60)” value with HL60 [5] is recorded as 6.37. Besides, the Papp at 15 h in the data set “in vitro” (pH 7.4) came to 0.16 ± 0.14 ×10⁻⁶ cm/s.
On to `Cc1ncsc1-c1ccc(CNC(=O)[C@@H]2C[C@@H](O)CN2C(=O)[C@@H](OC(=O)CCOCCOCCOCCNC(=O)Cc2ccccc2)C(C)(C)C)cc1` [Compound 5], for which, for the setting “pH 7.4”, the “fold more permeable than 6 (PAMPA)” value is 1.5 fold. In addition, the “ΔLPE (lower than 3)” value in [3] (comparator compound 3) came out at 0.8. For the same compound, the Papp at 7 h in “in vitro” (pH 7.4) came to 0.3 ± 0.1 ×10⁻⁶ cm/s.
